Measurements from patent US20230131899A1, “INHIBITORS OF MICROBIALLY INDUCED AMYLOID” (Axial Therapeutics, Inc., priority 2020, published 2023).
Read-outs that look alike come from different tables or passages of the source.

Target: T1, E. coli CsgA (Escherichia coli, UniProt P28307)
T1 construct: made in house; host or cells: E. coli NEB 3016 slyD::kan, pET11d
Experiment: In vitro ThioflavinT assay of CsgA aggregation (CsgA ThT Assay)
Type: biochemical
Conditions: for remaining activity at 25 µM: compound 25 μM; for remaining activity at 100 µM: compound 100 μM
Procedure, shortened: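 Purified C-terminal His-tagged CsgA, monomerised by desalting and 30-kDa filtration, at 2-20 μM with 20-40 μM ThT in 50 mM potassium phosphate pH 7.3, 1% DMSO, compounds 3.125-200 uM; room temperature, fluorescence (ex 438/em 495 nm) read every 15 min. Background-subtracted signal expressed as percent inhibition versus vehicle at 6-6.5 or 8-9 h, or as percent control AUC.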

[1] = read-out: CsgA ThT Assay (10 μM CsgA) % Control AUC at 1005 minutes, 25 μM (activity range), CsgA 10 μM, black plates, 1005 minutes, class symbol
[2] = read-out: CsgA ThT Assay (10 μM CsgA) % Control AUC at 1005 minutes, 25 μM, mean AUC as % of DMSO control, CsgA 10 μM, black plates, 1005 minutes
[3] = read-out: CsgA ThT Assay (10 μM CsgA) % Control AUC at 1005 minutes, 100 μM (activity range), CsgA 10 μM, black plates, 1005 minutes, class symbol
[4] = read-out: CsgA ThT Assay (10 μM CsgA) % Control AUC at 1005 minutes, 100 μM, mean AUC as % of DMSO control, CsgA 10 μM, black plates, 1005 minutes
[5] = read-out: CsgA ThT Assay (2 μM CsgA) % Control Bmax 25 μM, activity range, class symbol, CsgA 2 μM, white plates
[6] = read-out: CsgA ThT Assay (2 μM CsgA) % Control Bmax 25 μM, mean Bmax as percentage of DMSO control, CsgA 2 μM, white plates
[7] = read-out: CsgA ThT Assay (2 μM CsgA) % Control Bmax 100 μM, activity range, class symbol, CsgA 2 μM, white plates
[8] = read-out: CsgA ThT Assay (2 μM CsgA) % Control Bmax 100 μM, mean Bmax as percentage of DMSO control, CsgA 2 μM, white plates

T1 sequence (P28307 23-151): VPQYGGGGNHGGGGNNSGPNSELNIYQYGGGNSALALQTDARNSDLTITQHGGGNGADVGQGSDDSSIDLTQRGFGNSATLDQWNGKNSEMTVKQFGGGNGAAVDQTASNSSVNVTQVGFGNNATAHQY

Structure (SMILES)	remaining activity at 25 µM [1] [%]	remaining activity at 25 µM [2] [%]	remaining activity at 100 µM [3] [%]	remaining activity at 100 µM [4] [%]	remaining activity at 25 µM [5] [%]	remaining activity at 25 µM [6] [%]	remaining activity at 100 µM [7] [%]	remaining activity at 100 µM [8] [%]
Cn1c(=O)c2c(nc(CCCCCCCN3CC(C(=O)O)n4c(c(-c5cccc(C(F)(F)F)c5)c(Cc5cccc6ccccc56)cc4=O)S3(=O)=O)n2C)n(C)c1=O (centres unmarked) [Compound 047, 8-(naphthalen-1-ylmethyl)-6-oxo-9-(3-(trifluoromethyl)phenyl)-2-(7-(1,3,7-trimethyl-2,6-dioxo-2,3,6,7-tetrahydro-1H-purin-8-yl)heptyl)-3,4-dihydro-2H,6H-pyrido[1,2-e][1,2,5]thiadiazine-4-carboxylic acid 1,1-dioxide]	31 to 60	55	> 60	71	–	–	–	–
O=C(O)C1CN(Cc2ccccc2CO)c2c(-c3cccc(C(F)(F)F)c3)c(Cc3cccc4ccccc34)c(Cl)c(=O)n21 (centres unmarked) [Compound 181, 6-chloro-1-(2-(hydroxymethyl)benzyl)-7-(naphthalen-1-ylmethyl)-5-oxo-8-(3-(trifluoromethyl)phenyl)-1,2,3,5-tetrahydroimidazo[1,2-a]pyridine-3-carboxylic acid]	–	–	–	–	31 to 60	57	31 to 60	40
O=C(O)C1CN(CCCCCCCN2CC(C(=O)O)n3c2c(-c2cccc(C(F)(F)F)c2)c(Cc2cccc4ccccc24)c(Cl)c3=O)c2c(-c3cccc(C(F)(F)F)c3)c(Cc3cccc4ccccc34)c(Cl)c(=O)n21 (centres unmarked) [Compound 188, 1,1′-(heptane-1,7-diyl)bis(6-chloro-7-(naphthalen-1-ylmethyl)-5-oxo-8-(3-(trifluoromethyl)phenyl)-1,2,3,5-tetrahydroimidazo[1,2-a]pyridine-3-carboxylic acid)]	–	–	–	–	31 to 60	33	11 to 31	14
N#Cc1cccc(CN2CC(C(=O)O)n3c2c(-c2cccc(C(F)(F)F)c2)c(Cc2cccc4ccccc24)c(Cl)c3=O)c1 (centres unmarked) [Compound 168, 6-chloro-1-(3-cyanobenzyl)-7-(naphthalen-1-ylmethyl)-5-oxo-8-(3-(trifluoromethyl)phenyl)-1,2,3,5-tetrahydroimidazo[1,2-a]pyridine-3-carboxylic acid]	–	–	–	–	> 60	76	31 to 60	47
CCCNC(=O)c1c(Cc2cccc3ccccc23)c(-c2cccc(C(F)(F)F)c2)c2n(c1=O)C(C(=O)O)CN(C)S2(=O)=O (centres unmarked) [Compound 154, 2-methyl-8-(naphthalen-1-ylmethyl)-6-oxo-7-(propylcarbamoyl)-9-(3-(trifluoromethyl)phenyl)-3,4-dihydro-2H,6H-pyrido[1,2-e][1,2,5]thiadiazine-4-carboxylic acid 1,1-dioxide]	–	–	–	–	> 60	92	> 60	63
O=C(O)C1CN(Cc2ccncc2)c2c(-c3cccc(C(F)(F)F)c3)c(Cc3cccc4ccccc34)c(Cl)c(=O)n21 (centres unmarked) [Compound 174, 6-chloro-7-(naphthalen-1-ylmethyl)-5-oxo-1-(pyridin-4-ylmethyl)-8-(3-(trifluoromethyl)phenyl)-1,2,3,5-tetrahydroimidazo[1,2-a]pyridine-3-carboxylic acid]	–	–	–	–	> 60	77	31 to 60	60
O=C(O)C1CN(CC2CCOCC2)c2c(-c3cccc(C(F)(F)F)c3)c(Cc3cccc4ccccc34)c(Cl)c(=O)n21 (centres unmarked) [Compound 182, 6-chloro-7-(naphthalen-1-ylmethyl)-5-oxo-1-((tetrahydro-2H-pyran-4-yl)methyl)-8-(3-(trifluoromethyl)phenyl)-1,2,3,5-tetrahydroimidazo[1,2-a]pyridine-3-carboxylic acid]	–	–	–	–	> 60	68	> 60	61
Nc1c(Cc2ccc(N)c3ccccc23)c(-c2cccc(C(F)(F)F)c2)c2n(c1=O)C(C(=O)O)CNS2(=O)=O (centres unmarked) [Compound 041]	> 60	75	11 to 31	27	–	–	–	–
O=C(O)C1CN(CCCO)c2c(-c3cccc(C(F)(F)F)c3)c(Cc3cccc4ccccc34)c(Cl)c(=O)n21 (centres unmarked) [Compound 197, 6-chloro-1-(3-hydroxypropyl)-7-(naphthalen-1-ylmethyl)-5-oxo-8-(3-(trifluoromethyl)phenyl)-1,2,3,5-tetrahydroimidazo[1,2-a]pyridine-3-carboxylic acid]	–	–	–	–	> 60	86	> 60	64
CC1(C(=O)O)CNS(=O)(=O)c2c(-c3cccc(C(F)(F)F)c3)c(Cc3cccc4ccccc34)cc(=O)n21 (centres unmarked) [Compound 042, 4-methyl-8-(naphthalen-1-ylmethyl)-6-oxo-9-(3-(trifluoromethyl)phenyl)-3,4-dihydro-2H,6H-pyrido[1,2-e][1,2,5]thiadiazine-4-carboxylic acid 1,1-dioxide]	31 to 60	52	11 to 31	18	–	–	–	–
NC(=O)c1c(Cc2cccc3ccccc23)c(-c2cccc(C(F)(F)F)c2)c2n(c1=O)C(C(=O)O)CN(CCCO)S2(=O)=O (centres unmarked) [Compound 184, 7-carbamoyl-2-(3-hydroxypropyl)-8-(naphthalen-1-ylmethyl)-6-oxo-9-(3-(trifluoromethyl)phenyl)-3,4-dihydro-2H,6H-pyrido[1,2-e][1,2,5]thiadiazine-4-carboxylic acid 1,1-dioxide]	–	–	–	–	31 to 60	45	11 to 31	22
O=C(O)C1CN(Cc2ccccc2)c2c(-c3cccc(C(F)(F)F)c3)c(C(F)(F)c3cccc4ccccc34)c(Br)c(=O)n21 (centres unmarked) [Compound 155, 1-benzyl-6-bromo-7-(difluoro(naphthalen-1-yl)methyl)-5-oxo-8-(3-(trifluoromethyl)phenyl)-1,2,3,5-tetrahydroimidazo[1,2-a]pyridine-3-carboxylic acid]	–	–	–	–	31 to 60	57	> 60	112
O=C(O)C1CN(CC2CCCC2)c2c(-c3cccc(C(F)(F)F)c3)c(Cc3cccc4ccccc34)c(Cl)c(=O)n21 (centres unmarked) [Compound 167, 6-chloro-1-(cyclopentylmethyl)-7-(naphthalen-1-ylmethyl)-5-oxo-8-(3-(trifluoromethyl)phenyl)-1,2,3,5-tetrahydroimidazo[1,2-a]pyridine-3-carboxylic acid]	–	–	–	–	> 60	65	31 to 60	49
CN1CC(C(=O)O)n2c(c(-c3cccc(C(F)(F)F)c3)c(Cc3cccc4ccccc34)c(C(=O)N3CCOCC3)c2=O)S1(=O)=O (centres unmarked) [Compound 160, 2-methyl-7-(morpholine-4-carbonyl)-8-(naphthalen-1-ylmethyl)-6-oxo-9-(3-(trifluoromethyl)phenyl)-3,4-dihydro-2H,6H-pyrido[1,2-e][1,2,5] thiadiazine-4-carboxylic acid 1,1-dioxide]	–	–	–	–	> 60	101	> 60	116
